Patent publication US5986108A, “4-substitued-3-[1 or 2 amino acid residue]-azetidin-2-one derivatives useful as cysteine proteinase inhibitor” (Synphar Laboratories, Inc., priority 1997, dated 1999)
Where two headings read alike, the source gives them in different places.

What was measured:
Type in all cases: biochemical
Cathepsin B = Cathepsin B (Rattus norvegicus, UniProt P00787); experiment: In vitro assay of inhibition of Cathepsin B (N-CBZ-Phe-Arg-AMC substrate)
Experimental: After 10 min of incubation at room temperature a 20 μl of 5 mM substrate (N-CBZ-Phe-Arg-AMC, dissolved in DMSO) was added to initiate reaction. Reading is followed up for 10 min at the Fluoroscan reader (excitation at 380 nm, emission at 460 nm).

Cathepsin L = Cathepsin L (Rattus norvegicus, UniProt P07154); experiment: Assay of inhibition of Cathepsin L (N-CBZ-Phe-Arg-AMC substrate)
Experimental: After 10 min of incubation at room temperature a 20 μl of 1 mM substrate (N-CBZ-Phe-Arg-AMC, dissolved in DMSO) was added to initiate reaction. Reading is followed up for 10 min at the Fluoroscan reader (excitation at 380 nm, emission at 460 nm).

papain = molecular target: T1, papain (Carica papaya, UniProt P00784); experiment: Assay of inhibition of papain (N-CBZ-Pro-Phe-Arg-pNA substrate)
T1 sequence (P00784 134-345): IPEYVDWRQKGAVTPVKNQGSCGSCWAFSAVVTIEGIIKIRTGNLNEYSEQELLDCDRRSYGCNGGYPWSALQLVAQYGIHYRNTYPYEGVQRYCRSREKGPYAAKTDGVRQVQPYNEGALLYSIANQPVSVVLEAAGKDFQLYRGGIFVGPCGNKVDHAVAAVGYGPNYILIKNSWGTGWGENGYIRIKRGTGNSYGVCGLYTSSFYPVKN
Experimental: To a 170 μl of enzyme-buffer mixture (enzyme:papain, diluted to give 30 mOD/min, buffer: 0.2M potassium phosphate, 1.0 mM EDTA, 5 mML Cysteine, pH6.5) a 10 μl of inhibitor (dissolved in DMSO) was added. After 10 min of incubation at room temperature, 20 μl of 10 mM substrate (N-CBZ-Pro-Phe-Arg-pNA, dissolved in DMSO) was added to initiate reaction. Reading is followed up for 3 min at the Thermomax plate reader(absorbance at 405 nm).
A plot of percentage of inhibition vs inhibitor concentration is obtained, and IC50 is determined using a linear regression calculations (concentration of inhibitor which will give 50% inhibition).

[1] = r rat CathB, pH5.1, 10 min preincubation at room temperature, read-out: IC50, Cathepsin B
[2] = r rat CathL, pH5.0, 10 min preincubation at room temperature, read-out: IC50, Cathepsin L
[3] = pH6.5, 10 min preincubation at room temperature, read-out: IC50, Papain

Sequence of Cathepsin L (P07154 114-334): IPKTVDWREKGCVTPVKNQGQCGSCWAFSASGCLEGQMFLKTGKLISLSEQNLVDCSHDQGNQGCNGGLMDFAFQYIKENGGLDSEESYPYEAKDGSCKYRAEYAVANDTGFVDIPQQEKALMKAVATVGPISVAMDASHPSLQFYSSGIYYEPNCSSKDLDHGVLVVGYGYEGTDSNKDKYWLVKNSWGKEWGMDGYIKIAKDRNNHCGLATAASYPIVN
Sequence of Cathepsin B (P00787 80-339): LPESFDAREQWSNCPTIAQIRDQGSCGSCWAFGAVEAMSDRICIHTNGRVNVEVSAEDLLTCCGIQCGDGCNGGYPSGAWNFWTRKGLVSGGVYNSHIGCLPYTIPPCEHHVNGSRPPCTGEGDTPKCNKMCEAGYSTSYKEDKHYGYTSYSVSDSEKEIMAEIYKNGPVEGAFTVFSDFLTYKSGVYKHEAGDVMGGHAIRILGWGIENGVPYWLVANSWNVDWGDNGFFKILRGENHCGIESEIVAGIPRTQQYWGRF

Row | Structure (SMILES) | IC50 (Cathepsin B; [1]) [µM] | IC50 (Cathepsin L; [2]) [µM] | IC50 (papain) [µM] | IC50 (papain; [3]) [µM] | IC50 (Cathepsin B) [µM] | IC50 (Cathepsin L) [µM]
1 | CC(=O)O[C@@H]1NC(=O)[C@H]1NC(=O)[C@H](C)NC(=O)OCc1ccccc1 [Example 33, (3S,4S)-3-(N-benzyloxycarbonyl-L-alanyl)-amino-4-acetoxy-azetidin-2-one] | 14.3 | 35.9 | 7.03 | – | – | –
2 | O=C(N[C@@H](Cc1ccccc1)C(=O)N[C@@H]1CNC1=O)OCc1ccccc1 [Example 4, (3R)-3-(N-benzyloxycarbonyl-L-phenylalanyl)-amino-azetidin-2-one] | – | – | 57 | – | – | –
3 | CON1C[C@@H](NC(=O)[C@H](Cc2ccccc2)NC(=O)OCc2ccccc2)C1=O [Example 3, (3R)-3-(N-benzyloxycarbonyl-L-phenylalanyl)-amino-1-methoxy-azetidin-2-one] | 52 | – | > 63 | – | – | –
4 | CON1C[C@H](NC(=O)[C@H](Cc2ccccc2)NC(=O)OCc2ccccc2)C1=O [Example 1, (3S)-3-(N-benzyloxycarbonyl-L-phenylalanyl)-amino-1-methoxy-azetidin-2-one] | > 63 | – | > 63 | – | – | –
5 | CC(C)C[C@H](NC(=O)[C@H]1O[C@@H]1C(=O)O)C(=O)NCCCCN=C(N)N [Example E-64, reference compound] | 0.005 | 0.015 | – | 0.0025 | – | –
6 | CC(=O)N[C@@H](Cc1ccccc1)C(=O)N[C@@H]1C(=O)N[C@H]1OC(C)=O [Example 9] | 42.3 | 2.7 | – | 0.228 | – | –
7 | C[C@H]1[C@H](NC(=O)[C@H](Cc2ccccc2)NC(=O)OCc2ccccc2)C(=O)N1S(=O)(=O)O [Example 5, Potassium (3S,4S)-3-(N-benzyloxycarbonyl-L-phenylalanyl)-amino-4-methyl-azetidin-2-one-1-sulfonate] | > 25 | – | > 25 | – | – | –
8 | CC(=O)O[C@@H]1NC(=O)[C@H]1NC(=O)[C@H](Cc1ccccc1)NC(=O)OCc1ccccc1 [Example 7, (3S,4S)-3-(N-benzyloxycarbonyl-L-phenylalanyl)-amino-4-acetoxy-azetidin-2-one] | – | – | 0.275 | – | – | –
9 | C[C@H]1[C@H](NC(=O)CNC(=O)[C@H](Cc2ccccc2)NC(=O)OCc2ccccc2)C(=O)N1S(=O)(=O)O [Example 6, Potassium (3S,4S)-3-(N-benzyloxycarbonyl-L-phenylalanyl-glycinyl)-amino-4-methyl-azetidin-2-one-1-sulfonate] | > 25 | – | > 25 | – | – | –
10 | N[C@@H](Cc1ccc(O[C@@H]2NC(=O)[C@H]2NC(=O)[C@H](Cc2ccccc2)NC(=O)CCc2ccccc2)cc1)C(=O)O [Example 29B, (3S,4S)-3-{N-(3-phenylpropionoyl)-L-phenylalanyl}-amino-4-{4-(L-2-amino-2-carboxy-ethyl)-phenoxy}-azetidin-2-one] | > 46 | 0.292 | 0.368 | – | – | –
11 | CC(=O)N[C@@H](CC(C)C)C(=O)N[C@@H](CC(C)C)C(=O)N[C@H](C=O)CCCNC(=N)N [Leupeptin, reference compound] | – | 0.008 | – | 0.012 | 0.013 | –
12 | CC(=O)O[C@@H]1NC(=O)[C@H]1NC(=O)[C@H](CC(C)C)NC(=O)OCc1ccccc1 [Example 8, (3S,4S)-3-(N-benzyloxycarbonyl-L-leucyl)-amino-4-acetoxy-azetidin-2-one] | – | – | 0.731 | – | – | 0.03
13 | CC(=O)O[C@@H]1NC(=O)[C@H]1NC(=O)[C@H](Cc1ccccc1)NC(=O)CCc1cccnc1 [Example 14, (3S,4S)-3-{N-(3-pyrid-3-yl-propionoyl)-L-phenylalanyl}-amino-4-acetoxy-azetidin-2-one] | 24.5 | 1.29 | – | – | – | –
14 | CC(=O)O[C@@H]1NC(=O)[C@H]1NC(=O)[C@H](Cc1ccccc1)NS(=O)(=O)/C=C/c1ccccc1 [Example 11] | 1.66 | 1.84 | – | – | – | –
15 | O=C(N[C@@H](Cc1ccccc1)C(=O)N[C@@H]1C(=O)N[C@H]1S(=O)(=O)c1ccccc1)OCc1ccccc1 [Example 21, (3R,4S)-3-(N-benezyloxycarbonyl-phenylalanyl)-amino-4-phenylsulfonyl-azetidin-2-one] | 7.39 | 0.000126 | – | – | – | –
16 | O=C(N[C@@H](Cc1ccccc1)C(=O)N[C@@H]1C(=O)N[C@H]1Sc1ccncc1)OCc1ccccc1 [Example 34, (3S,4S)-3-(N-benzyloxycarbonyl-L-phenylalanyl)-amino-4-(pyrid-4-yl) thio-azetidin-2-one] | 0.33 | 0.0168 | – | – | – | –
17 | CC(=O)O[C@@H]1NC(=O)[C@H]1NC(=O)[C@H](Cc1ccccc1)NC(=O)c1cc2ccccc2o1 [Example 16, (3S,4S)-3{N-(benzofuran-2-yl-carbonyl)-L-phenylalanyl}-amino-4-acetoxy-azetidin-2-one] | 5.68 | 0.035 | – | – | – | –
18 | O=C(N[C@@H](Cc1ccccc1)C(=O)N[C@H]1CNC1=O)OCc1ccccc1 [Example 2, (3S)-3-(N-benzyloxycarbonyl-L-phenylalanyl)-amino-azetidin-2-one] | 4.81 | – | 15.8 | – | – | –
19 | CC(=O)O[C@@H]1NC(=O)[C@H]1NC(=O)[C@H](Cc1ccccc1)NC(=O)N1CCOCC1 [Example 12, (3S,4S)-3-{N-(morpholin-yl-carbonyl)-L-phenylalaninyl}-amino-4-acetoxy-azetidin-2-one] | 7.4 | 1.58 | – | – | – | –
20 | CC(=O)O[C@@H]1NC(=O)[C@H]1NC(=O)[C@H](Cc1ccccc1)NS(=O)(=O)c1ccc(C(C)(C)C)cc1 [Example 18] | 2.12 | 0.082 | – | – | – | –
